Target: T1, YFP-AtCESA6 (Arabidopsis thaliana, UniProt Q94JQ6)
T1 construct: expressed in transfected cells; host or cells: transgenic Arabidopsis thaliana YFP-AtCESA6 seedlings (total protein extract for DARTS; root epidermal cells for imaging)
T1 sequence (Q94JQ6 1-1084): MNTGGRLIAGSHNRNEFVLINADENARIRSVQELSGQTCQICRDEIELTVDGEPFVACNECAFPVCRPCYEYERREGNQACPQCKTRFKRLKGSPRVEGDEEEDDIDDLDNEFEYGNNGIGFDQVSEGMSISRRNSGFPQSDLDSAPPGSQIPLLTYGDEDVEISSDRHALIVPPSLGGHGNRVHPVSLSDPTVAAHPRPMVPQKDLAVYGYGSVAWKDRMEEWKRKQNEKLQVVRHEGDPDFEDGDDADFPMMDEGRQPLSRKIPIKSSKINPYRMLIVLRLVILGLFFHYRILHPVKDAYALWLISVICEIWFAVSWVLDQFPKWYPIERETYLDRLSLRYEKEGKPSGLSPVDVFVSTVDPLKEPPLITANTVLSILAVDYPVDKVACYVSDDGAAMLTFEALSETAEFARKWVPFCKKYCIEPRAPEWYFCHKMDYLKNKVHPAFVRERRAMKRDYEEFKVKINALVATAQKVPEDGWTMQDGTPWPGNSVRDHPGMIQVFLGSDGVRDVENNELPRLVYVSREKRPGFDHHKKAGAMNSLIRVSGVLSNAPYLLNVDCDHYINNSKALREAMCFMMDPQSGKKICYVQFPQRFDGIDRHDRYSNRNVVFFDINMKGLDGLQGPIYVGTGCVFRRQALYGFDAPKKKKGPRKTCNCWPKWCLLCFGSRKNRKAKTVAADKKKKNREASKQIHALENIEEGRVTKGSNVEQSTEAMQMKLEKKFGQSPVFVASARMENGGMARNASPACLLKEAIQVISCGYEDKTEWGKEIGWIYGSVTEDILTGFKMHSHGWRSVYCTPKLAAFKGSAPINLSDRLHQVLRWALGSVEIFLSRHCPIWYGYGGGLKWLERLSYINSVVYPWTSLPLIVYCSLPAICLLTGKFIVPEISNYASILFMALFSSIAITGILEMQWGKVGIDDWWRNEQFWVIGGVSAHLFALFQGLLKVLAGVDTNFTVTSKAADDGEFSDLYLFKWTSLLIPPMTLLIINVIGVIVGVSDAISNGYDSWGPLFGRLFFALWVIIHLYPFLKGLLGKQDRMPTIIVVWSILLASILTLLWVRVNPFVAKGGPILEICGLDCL
T1 sequence (O48946 1-1081 partner): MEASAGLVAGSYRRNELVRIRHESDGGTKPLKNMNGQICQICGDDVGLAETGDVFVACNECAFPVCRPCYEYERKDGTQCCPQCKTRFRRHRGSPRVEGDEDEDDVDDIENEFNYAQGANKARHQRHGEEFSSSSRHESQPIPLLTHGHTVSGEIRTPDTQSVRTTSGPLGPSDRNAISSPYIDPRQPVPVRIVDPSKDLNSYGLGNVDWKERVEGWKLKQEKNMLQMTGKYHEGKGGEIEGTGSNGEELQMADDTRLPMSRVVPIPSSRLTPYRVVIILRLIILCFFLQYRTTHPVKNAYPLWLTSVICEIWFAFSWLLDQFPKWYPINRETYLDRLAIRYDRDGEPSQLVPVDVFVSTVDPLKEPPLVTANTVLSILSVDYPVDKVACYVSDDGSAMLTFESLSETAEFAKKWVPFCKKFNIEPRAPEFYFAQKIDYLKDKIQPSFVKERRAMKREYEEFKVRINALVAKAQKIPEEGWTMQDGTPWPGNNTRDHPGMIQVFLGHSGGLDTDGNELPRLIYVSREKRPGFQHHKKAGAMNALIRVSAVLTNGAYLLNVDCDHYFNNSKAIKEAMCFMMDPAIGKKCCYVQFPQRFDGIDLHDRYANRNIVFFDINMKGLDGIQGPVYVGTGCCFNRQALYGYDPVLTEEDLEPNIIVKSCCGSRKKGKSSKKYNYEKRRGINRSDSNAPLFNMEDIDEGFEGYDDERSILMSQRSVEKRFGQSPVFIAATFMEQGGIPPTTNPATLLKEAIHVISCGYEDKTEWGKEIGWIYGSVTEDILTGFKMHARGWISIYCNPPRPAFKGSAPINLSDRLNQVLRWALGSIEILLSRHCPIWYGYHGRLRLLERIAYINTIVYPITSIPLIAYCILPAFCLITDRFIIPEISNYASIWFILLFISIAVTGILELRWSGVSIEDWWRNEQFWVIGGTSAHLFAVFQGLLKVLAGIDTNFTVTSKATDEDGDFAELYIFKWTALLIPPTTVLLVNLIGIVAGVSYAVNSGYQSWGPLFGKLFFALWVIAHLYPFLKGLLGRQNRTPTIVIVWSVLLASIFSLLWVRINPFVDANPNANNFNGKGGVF
T1 sequence (Q941L0 1-1065 partner): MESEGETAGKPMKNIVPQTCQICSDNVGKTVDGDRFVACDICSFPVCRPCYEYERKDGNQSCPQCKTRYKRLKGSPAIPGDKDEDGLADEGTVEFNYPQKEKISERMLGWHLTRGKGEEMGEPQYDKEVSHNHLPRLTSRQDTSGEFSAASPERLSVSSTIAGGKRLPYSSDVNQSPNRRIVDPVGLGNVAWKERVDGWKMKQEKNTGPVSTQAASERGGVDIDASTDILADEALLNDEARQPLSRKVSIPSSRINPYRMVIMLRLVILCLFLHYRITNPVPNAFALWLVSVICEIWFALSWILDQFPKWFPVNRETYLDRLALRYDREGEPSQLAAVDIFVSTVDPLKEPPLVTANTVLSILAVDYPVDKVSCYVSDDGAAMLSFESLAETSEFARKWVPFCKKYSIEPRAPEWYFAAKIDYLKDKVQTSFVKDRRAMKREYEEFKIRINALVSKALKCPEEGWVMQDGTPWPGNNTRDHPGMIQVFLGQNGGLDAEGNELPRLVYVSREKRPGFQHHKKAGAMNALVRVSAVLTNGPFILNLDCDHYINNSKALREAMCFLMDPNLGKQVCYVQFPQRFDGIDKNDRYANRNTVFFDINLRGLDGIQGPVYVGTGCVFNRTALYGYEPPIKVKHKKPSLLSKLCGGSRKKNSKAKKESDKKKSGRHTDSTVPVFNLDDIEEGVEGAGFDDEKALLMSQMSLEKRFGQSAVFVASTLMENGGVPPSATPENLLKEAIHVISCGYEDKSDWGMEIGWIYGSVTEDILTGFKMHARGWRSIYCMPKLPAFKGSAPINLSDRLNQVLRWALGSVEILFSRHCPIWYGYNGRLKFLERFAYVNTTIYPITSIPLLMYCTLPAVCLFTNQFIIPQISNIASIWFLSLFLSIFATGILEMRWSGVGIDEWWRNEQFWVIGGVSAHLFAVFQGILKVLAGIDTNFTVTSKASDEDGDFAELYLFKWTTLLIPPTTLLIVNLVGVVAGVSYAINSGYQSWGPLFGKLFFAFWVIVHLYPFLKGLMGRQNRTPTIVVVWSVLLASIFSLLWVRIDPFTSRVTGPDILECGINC
Test: DARTS assay
Format: binding
Conditions: total protein from YFP-AtCESA6 seedlings, vs DMSO
Description: To further validate that ES20-1 targets AtCESA6, we looked for a direct interaction between ES20-1 and AtCESA6. We performed a DARTS (Drug Affinity Responsive Target Stability) assay to test the interaction of ES20-1 with endogenous AtCESA6. We incubated total protein from YFP-AtCESA6 seedlings with either DMSO (as a control) or ES20-1 and digested the mixtures with protease. […] We also purified the central cytosolic domain of AtCESA6 (CESA6c) from E. coli (FIG. 3J) and performed a Microscale thermophoresis (MST) assay to test its interaction with ES20-1. […] We purified AtCESA6 central cytoplasmic domain carrying missense mutation P595S (CESA6c^P595S) and tested its interaction with ES20 and ES20-1 (3O).
To test for an interaction between AtCESA6 and ES20-1 using a DARTS assay, 7-day-old YFP-AtCESA6 light-grown seedlings were harvested and ground to a powder in liquid nitrogen. The ground tissue was homogenized in lysis buffer (50 mM Tris-HCl, pH 7.5, 150 mM NaCl, 0.5% Triton X-100, 2 mM DTT, one tablet/50 mL EDTA free Pierce protease inhibitor [Thermo Fisher]) at 2:1 ratio (2 mL buffer: 1 g tissue). […] The X-ray films were scanned, and the signal intensity of each protein band was quantified after background subtraction using Image J. The relative intensities were quantified by dividing the values in ES20-1-treated samples by the values in DMSO-treated samples.

SMILES: Cc1ccccc1C(=O)NNC(=S)NC(=O)c1ccccc1 [ES20-1]
- interaction with endogenous AtCESA6 (protection from protease): interacts with endogenous AtCESA6 and protects it from degradation

Reference: patent US11938121B2, “Treatment of infections and biofilm formation using a cellulose synthase inhibitor” (Purdue Research Foundation, priority 2020, dated 2024)
